Data taken from US20050192261A1, “Methods and reagents for the treatment of immunoinflammatory disorders” (priority 2003, published 2005).
Where two headings read alike, the source gives them in different places.

System: TNFα secretion in white blood cells from human buffy coat stimulated with phorbol 12-myristate 13-acetate and ionomycin
Assay: TNFα secretion assay
Settings: for inhibition at 0.5 µM / inhibition at 1 µM: Homo sapiens
Protocol: Drugs were added to the indicated concentration. […] The plate was then washed again with 0.1% Tween 20/PBS. An HRP-luminescent substrate was added to each well, and the light intensity of each well was measured using a plate luminometer.

Q: C[C@]12C=CC(=O)C=C1CC[C@@H]1[C@@H]2[C@@H](O)C[C@@]2(C)[C@H]1CC[C@]2(O)C(=O)CO [Prednisolone, prednisolone] was tested. Which inhibition at 0.5 µM (read-out: % inhibition of TNFα secretion, Prednisolone 0.5 μM, Tripelennamine HCl μM r5-r13: 0,0.31,0.61,1.2,2.4,4.9,9.8,20,39) did it give?
A: The inhibition at 0.5 µM was 35%.

Q: And the inhibition at 1 µM (read-out: % inhibition of TNFα secretion, Prednisolone 1 μM, Tripelennamine HCl μM r5-r13: 0,0.31,0.61,1.2,2.4,4.9,9.8,20,39)?
A: The inhibition at 1 µM was 40%.

Q: What about the inhibition at 0.5 µM (read-out: inhibition of TNFα secretion, prednisolone 0.5 μM, azatadine maleate r5-r13: 0,0.27,0.54,1.1,2.1,4.3,8.6,17,34 μM) of the same compound?
A: Its inhibition at 0.5 µM is 35%.

Q: And the inhibition at 0.5 µM (read-out: inhibition of TNFα secretion, prednisolone 0.5 μM, bromodiphenhydramine HCl r5-r13: 0,0.21,0.43,0.85,1.7,3.4,6.8,14,27 μM)?
A: Its inhibition at 0.5 µM is 34%.

Q: What about the inhibition at 0.5 µM (read-out: inhibition of TNFα secretion, prednisolone 0.5 μM, chlorpheniramine maleate r5-r13: 0,0.2,0.4,0.8,1.6,3.2,6.4,13,26 μM) of the same compound?
A: The inhibition at 0.5 µM was 28%.

Q: What about the inhibition at 0.5 µM (read-out: inhibition of TNFα secretion, prednisolone 0.5 μM, clemizole HCl r5-r13: 0,0.22,0.43,0.86,1.7,3.5,6.9,14,28 μM) of the same compound?
A: Its inhibition at 0.5 µM is 37%.

Q: What about the inhibition at 0.5 µM (read-out: inhibition of TNFα secretion, prednisolone 0.5 μM, doxylamine succinate r5-r13: 0,0.2,0.4,0.8,1.6,3.2,6.4,13,26 μM) of the same compound?
A: The inhibition at 0.5 µM was 32%.

Q: What about the inhibition at 0.5 µM (read-out: inhibition of TNFα secretion, prednisolone 0.5 μM, fexofenadine HCl r5-r13: 0,0.073,0.15,0.29,0.58,1.2,2.3,4.6,9.3 μM) of the same compound?
A: The inhibition at 0.5 µM was 45%.

Q: What about the inhibition at 0.5 µM (read-out: inhibition of TNFα secretion, prednisolone 0.5 μM, loratadine r5-r13: 0,0.2,0.41,0.82,1.6,3.3,6.5,13,26 μM) of the same compound?
A: The inhibition at 0.5 µM was 29%.

Q: What about the inhibition at 0.5 µM (read-out: inhibition of TNFα secretion, prednisolone 0.5 μM, meclizine HCl r5-r13: 0,0.32,0.63,1.3,2.5,5.1,10,20,41 μM) of the same compound?
A: The inhibition at 0.5 µM was 36%.

Q: And the inhibition at 0.5 µM (read-out: inhibition of TNFα secretion, prednisolone 0.5 μM, promethazine HCl r5-r13: 0,0.24,0.49,0.97,1.9,3.9,7.8,16,31 μM)?
A: The inhibition at 0.5 µM was 32%.

Q: And the inhibition at 0.5 µM (read-out: inhibition of TNFα secretion, prednisolone 0.5 μM, pyrilamine maleate r5-r13: 0,0.19,0.38,0.76,1.5,3,6.1,12,24 μM)?
A: The inhibition at 0.5 µM was 24%.

Q: What about the inhibition at 1 µM (read-out: inhibition of TNFα secretion, prednisolone 1 μM, azatadine maleate r5-r13: 0,0.27,0.54,1.1,2.1,4.3,8.6,17,34 μM) of the same compound?
A: The inhibition at 1 µM was 43%.

Q: What about the inhibition at 1 µM (read-out: inhibition of TNFα secretion, prednisolone 1 μM, bromodiphenhydramine HCl r5-r13: 0,0.21,0.43,0.85,1.7,3.4,6.8,14,27 μM) of the same compound?
A: The inhibition at 1 µM was 37%.

Q: What about the inhibition at 1 µM (read-out: inhibition of TNFα secretion, prednisolone 1 μM, cetrizine HCl r5-r13: 0,0.2,0.4,0.8,1.6,3.2,6.4,13,26 μM) of the same compound?
A: The inhibition at 1 µM was 40%.

Q: And the inhibition at 1 µM (read-out: inhibition of TNFα secretion, prednisolone 1 μM, chlorpheniramine maleate r5-r13: 0,0.2,0.4,0.8,1.6,3.2,6.4,13,26 μM)?
A: The inhibition at 1 µM was 39%.

Q: What about the inhibition at 1 µM (read-out: inhibition of TNFα secretion, prednisolone 1 μM, clemizole HCl r5-r13: 0,0.22,0.43,0.86,1.7,3.5,6.9,14,28 μM) of the same compound?
A: The inhibition at 1 µM was 40%.

Q: And the inhibition at 1 µM (read-out: inhibition of TNFα secretion, prednisolone 1 μM, cyproheptadine HCl r5-r13: 0,0.24,0.48,0.96,1.9,3.9,7.7,15,31 μM)?
A: The inhibition at 1 µM was 39%.

Q: And the inhibition at 1 µM (read-out: inhibition of TNFα secretion, prednisolone 1 μM, doxylamine succinate r5-r13: 0,0.2,0.4,0.8,1.6,3.2,6.4,13,26 μM)?
A: Its inhibition at 1 µM is 35%.

Q: What about the inhibition at 1 µM (read-out: inhibition of TNFα secretion, prednisolone 1 μM, fexofenadine HCl r5-r13: 0,0.073,0.15,0.29,0.58,1.2,2.3,4.6,9.3 μM) of the same compound?
A: Its inhibition at 1 µM is 45%.

Q: What about the inhibition at 1 µM (read-out: inhibition of TNFα secretion, prednisolone 1 μM, loratadine r5-r13: 0,0.2,0.41,0.82,1.6,3.3,6.5,13,26 μM) of the same compound?
A: The inhibition at 1 µM was 40%.

Q: And the inhibition at 1 µM (read-out: inhibition of TNFα secretion, prednisolone 1 μM, meclizine HCl r5-r13: 0,0.32,0.63,1.3,2.5,5.1,10,20,41 μM)?
A: Its inhibition at 1 µM is 44%.

Q: And the inhibition at 1 µM (read-out: inhibition of TNFα secretion, prednisolone 1 μM, promethazine HCl r5-r13: 0,0.24,0.49,0.97,1.9,3.9,7.8,16,31 μM)?
A: Its inhibition at 1 µM is 39%.

Q: What about the inhibition at 1 µM (read-out: inhibition of TNFα secretion, prednisolone 1 μM, pyrilamine maleate r5-r13: 0,0.19,0.38,0.76,1.5,3,6.1,12,24 μM) of the same compound?
A: Its inhibition at 1 µM is 31%.

Q: What about the inhibition at 1 µM (read-out: inhibition of TNFα secretion, prednisolone 1 μM, thiethylperazine maleate r5-r13: 0,0.2,0.39,0.78,1.6,3.1,6.3,13,25 μM) of the same compound?
A: The inhibition at 1 µM was 39%.

Q: And the inhibition at 0.5 µM (read-out: percent inhibition of TNFα secretion, Prednisolone 0.5 μM, Bromodiphenhydramine HCl μM r5-r13: 0,0.21,0.43,0.85,1.7,3.4,6.8,14,27)?
A: Its inhibition at 0.5 µM is 34%.

Q: What about the inhibition at 0.5 µM (read-out: percent inhibition of TNFα secretion, Prednisolone 0.5 μM, Clemizole μM r5-r13: 0,0.22,0.43,0.86,1.7,3.5,6.9,14,28) of the same compound?
A: The inhibition at 0.5 µM was 37%.

Q: What about the inhibition at 0.5 µM (read-out: percent inhibition of TNFα secretion, Prednisolone 0.5 μM, Loratadine μM r5-r13: 0,0.2,0.41,0.82,1.6,3.3,6.5,13,26) of the same compound?
A: The inhibition at 0.5 µM was 29%.

Q: And the inhibition at 0.5 µM (read-out: percent inhibition of TNFα secretion, Prednisolone 0.5 μM, Promethazine HCl μM r5-r13: 0,0.24,0.49,0.97,1.9,3.9,7.8,16,31)?
A: Its inhibition at 0.5 µM is 32%.

Q: What about the inhibition at 1 µM (read-out: percent inhibition of TNFα secretion, Prednisolone 1 μM, Bromodiphenhydramine HCl μM r5-r13: 0,0.21,0.43,0.85,1.7,3.4,6.8,14,27) of the same compound?
A: The inhibition at 1 µM was 37%.

Q: And the inhibition at 1 µM (read-out: percent inhibition of TNFα secretion, Prednisolone 1 μM, Clemizole μM r5-r13: 0,0.22,0.43,0.86,1.7,3.5,6.9,14,28)?
A: The inhibition at 1 µM was 40%.

Q: And the inhibition at 1 µM (read-out: percent inhibition of TNFα secretion, Prednisolone 1 μM, Cyproheptadine μM r5-r13: 0,0.24,0.48,0.96,1.9,3.9,7.7,15,31)?
A: Its inhibition at 1 µM is 39%.

Q: And the inhibition at 1 µM (read-out: percent inhibition of TNFα secretion, Prednisolone 1 μM, Loratadine μM r5-r13: 0,0.2,0.41,0.82,1.6,3.3,6.5,13,26)?
A: The inhibition at 1 µM was 40%.

Q: What about the inhibition at 1 µM (read-out: percent inhibition of TNFα secretion, Prednisolone 1 μM, Promethazine HCl μM r5-r13: 0,0.24,0.49,0.97,1.9,3.9,7.8,16,31) of the same compound?
A: The inhibition at 1 µM was 39%.

Q: What about the inhibition at 1 µM (read-out: percent inhibition of TNFα secretion, Prednisolone 1 μM, Thiethylperazine μM r5-r13: 0,0.2,0.39,0.78,1.6,3.1,6.3,13,25) of the same compound?
A: The inhibition at 1 µM was 39%.

Q: CN(C)CCOC(C)(c1ccccc1)c1ccccn1 (stereo not drawn) [Doxylamine Succinate] was tested. Which “inhibition of TNFα secretion” value (prednisolone 1 μM, doxylamine succinate r5-r13: 0,0.2,0.4,0.8,1.6,3.2,6.4,13,26 μM) did it give?
A: The value was 34.
